Measurements from patent US20240174633A1, “CRYSTALLINE FORMS OF (4S)-24-CHLORO-4-ETHYL-73-FLUORO-35-METHOXY-32,5-DIOXO-14-(TRIFLUORO-METHYL)-32H-6-AZA-3(4,1)-PYRIDINA-1(1)-[1,2,3]TRIAZOLA-2(1,2),7(1)-DIBENZENAHEPTAPHANE-74-CARBOXAMIDE” (Bayer Aktiengesellschaft, priority 2021, published 2024).

Experiments:
human plasma kallikrein = human plasma kallikrein (Homo sapiens (Human), UniProt P03952); experiment: Determination of the plasma kallikrein activity (fluorogenic peptide substrate); assay type: biochemical; details: substrate H-Pro-Phe-Arg-AMC
Sequence of human plasma kallikrein (P03952 391-638): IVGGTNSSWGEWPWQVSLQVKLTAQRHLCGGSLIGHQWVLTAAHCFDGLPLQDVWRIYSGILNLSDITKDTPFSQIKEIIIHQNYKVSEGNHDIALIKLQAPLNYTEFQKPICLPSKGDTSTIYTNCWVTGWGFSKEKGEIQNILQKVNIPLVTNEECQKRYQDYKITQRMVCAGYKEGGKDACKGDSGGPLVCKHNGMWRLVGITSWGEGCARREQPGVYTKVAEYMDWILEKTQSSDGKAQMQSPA
Sequence of human plasma kallikrein (P03952 20-390 partner): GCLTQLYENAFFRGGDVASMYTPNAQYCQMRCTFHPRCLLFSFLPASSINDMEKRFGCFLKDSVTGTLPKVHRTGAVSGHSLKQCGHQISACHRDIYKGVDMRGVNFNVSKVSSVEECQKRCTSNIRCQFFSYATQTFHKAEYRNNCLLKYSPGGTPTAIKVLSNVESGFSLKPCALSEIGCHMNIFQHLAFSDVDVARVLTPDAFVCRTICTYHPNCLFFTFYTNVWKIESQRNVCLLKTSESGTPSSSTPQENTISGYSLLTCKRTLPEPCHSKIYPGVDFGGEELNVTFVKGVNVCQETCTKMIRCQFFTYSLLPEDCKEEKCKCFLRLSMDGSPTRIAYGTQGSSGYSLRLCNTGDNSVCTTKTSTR
Protocol: (§1) To determine the plasma kallikrein inhibition of the substances according to the invention, a biochemical test system is used which utilizes the reaction of a peptidic plasma kallikrein substrate to determine the enzymatic activity of human plasma kallikrein. Here, plasma kallikrein cleaves from the peptidic plasma kallikrein substrate the C-terminal aminomethylcoumarin (AMC), the fluorescence of which is measured. The determinations are carried out in microtitre plates.
(§2) Test substances are dissolved in dimethyl sulfoxide and serially diluted in dimethyl sulfoxide (3000 μM to 0.0078 M; resulting final concentrations in the test: 50 μM to 0.00013 μM). In each case 1 μl of the diluted substance solutions is placed into the wells of white microtitre plates from Greiner (384 wells). […] After 15 min of incubation, the enzyme reaction is started by addition of 20 μl of the substrate H-Pro-Phe-Arg-AMC dissolved in assay buffer (10 μM in assay buffer) from Bachem, the mixture is incubated at room temperature (22° C.) for 30 min and fluorescence is then measured (excitation: 360 nm, emission: 460 nm). The measured emissions of the test batches with test substance are compared to those of control batches without test substance (only dimethyl sulfoxide instead of test substance in dimethyl sulfoxide), and IC50 values are calculated from the concentration/activity relationships. […]

human factor XIa = human factor XIa (Homo sapiens (Human), UniProt P03951); experiment: Measurement of FXIa inhibition (fluorogenic peptide substrate); assay type: biochemical; details: substrate Boc-Glu(OBzl)-Ala-Arg-AMC
Sequence of human factor XIa (P03951 388-625): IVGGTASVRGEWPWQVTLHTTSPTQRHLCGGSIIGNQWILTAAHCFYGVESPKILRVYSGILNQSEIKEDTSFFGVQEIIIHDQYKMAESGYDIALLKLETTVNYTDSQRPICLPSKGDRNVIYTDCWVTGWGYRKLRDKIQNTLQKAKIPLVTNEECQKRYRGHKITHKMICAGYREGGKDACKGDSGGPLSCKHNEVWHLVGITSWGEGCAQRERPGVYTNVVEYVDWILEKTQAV
Sequence of human factor XIa (P03951 19-387 partner): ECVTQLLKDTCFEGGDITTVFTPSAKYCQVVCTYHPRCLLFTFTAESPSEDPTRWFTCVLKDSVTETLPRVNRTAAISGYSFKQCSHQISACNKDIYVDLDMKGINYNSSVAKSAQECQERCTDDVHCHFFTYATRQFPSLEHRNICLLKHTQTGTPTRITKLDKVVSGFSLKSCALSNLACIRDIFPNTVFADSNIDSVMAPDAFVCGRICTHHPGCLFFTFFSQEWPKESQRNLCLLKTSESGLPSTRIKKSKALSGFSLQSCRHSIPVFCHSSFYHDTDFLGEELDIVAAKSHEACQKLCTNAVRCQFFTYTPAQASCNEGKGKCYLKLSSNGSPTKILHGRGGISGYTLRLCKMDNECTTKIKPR
Protocol: as §1, with “The factor XIa” for “To determine the plasma kallikrein”, “invention is determined using” for “invention,”, “system” for “system is used”, “factor XIa” for “plasma kallikrein”, “factor XIa.” for “plasma kallikrein.”
as §2, with “to 0.0078 μM; resulting final” for “to 0.0078 M; resulting final”, “test: 50 µM to 0.00013” for “test: 50 μM to 0.00013”, “of the factor XIa substrate Boc-Glu(OBzl)-Ala-Arg-AMC” for “of the substrate H-Pro-Phe-Arg-AMC”, “XIa substrate Boc-Glu(OBzl)-Ala-Arg-AMC dissolved in” for “the substrate H-Pro-Phe-Arg-AMC dissolved in”

COc1cn([C@@H](C)C(=O)Nc2ccc(C(N)=O)c(F)c2)c(=O)cc1-c1c(-n2cc(C(F)(F)F)nn2)ccc(Cl)c1F [Example 2.4, 4-({(2S)-2-[4-{3-Chloro-2-fluoro-6-[4-(trifluoromethyl)-1H-1,2,3-triazol-1-yl]phenyl}-5-methoxy-2-oxopyridin-1(2H)-yl]propanoyl}amino)-2-fluorobenzamide]
IC50 (human plasma kallikrein): 3.4 nM
IC50 (human factor XIa): 1.2 nM
